Key:
[1] = system: pUC 19 plasmid DNA; assay: Agarose gel electrophoresis of supercoiled plasmid DNA; design: species or system Escherichia coli; details: 100 µM, Tris-HCl pH 7.20, 37 °C, 24 h
Description: Studies of interactions between the compounds under study and supercoiled plasmid DNA by agarose gel electrophoresis were carried out. Thus, 136 ng of purified plasmid DNA-pUC 19 from Escherichia coli (Sigma-Aldrich Brasil, São Paulo, Brazil) were incubated with compounds 1, 2 and cisplatin at 100 µM in Tris-HCl buffer (NaCl 50 mM, Tris-HCl 5 mM, pH = 7.20). The mixture was incubated at 37 °C for 24 h. Thereafter, the reactions were quenched by adding 5 µL of the loading buffer solution (50 mM Tris, pH 7.20, 0.01% bromophenol blue, 50% glycerol, and 250 mM EDTA). The samples were analyzed by 1% agarose gel electrophoresis in 0.5 × TBE buffer for 1 h 40 min at […]. The gel was stained after electrophoresis in 0.5× TBE buffer with 2.5 µg·mL^−1 ethidium bromide for 15 min and visualized by UV light.

[2] = system: T98 (p53 mutant glioblastoma multiforme) cells; assay: MTT cytotoxicity assay, T98 cells; type: cell-based, human; details: for IC50: MTT, 48 h treatment; for selectivity index (SI = IC50MRC5/IC50tumor cell), T98: T98 vs MRC5
Description: (§1) The in vitro cytotoxic effects of H2AcMe, H2BzMe and complexes 1 and 2 against wild type p53 U87 and mutant p53 T98 glioblastoma cells and against MRC-5 fibroblasts cells were tested using cisplatin as a positive control. To determine the IC50 (concentration that inhibits 50% of cell survival) values the cytotoxic effects were quantified using the 3-(4,5-dimethyl-2-thioazolyl)-2,5-diphenyl tetrazolium bromide (MTT) colorimetric assay. All tested compounds were cytotoxic against both glioma cell lines in a dose-dependent way. The IC50 values (see Table 1) were found in the micromolar range. Despite their cytotoxic activity, all compounds were less toxic to fibroblasts cells than cisplatin. CuCl2 evoked only mild cytotoxicity in all cell lineages with IC50 higher than 100 µM.
(§2) U87 (p53 wild-type glioblastoma multiforme) and T98 (p53 mutant glioblastoma multiforme) malignant human tumor cells and MRC5 (Human Fetal Lung Fibroblast) cells were obtained from the American Type Culture Collection (ATCC, Manassas, VA, USA). Cell lines were grown as monolayer in Dulbecco’s Modified Eagle’s Medium (DMEM, Gibco, Rockville, MD, USA), supplemented with 10% fetal bovine serum (Cultilab, Campinas, São Paulo, Brazil) and antibiotics (50 U/mL penicillin/50 […] streptomycin), in a humidified atmosphere air/CO2 (95%/5%) at 37 °C. Cells 80% confluents were used in all experiments. For all experiments, cells were seeded in 96-well plates, at a density of 1000 cells/well. After 24 h incubation cells were treated.
(§3) To determine the IC50 values the cytotoxic effects were quantified using the 3-(4,5-dimethyl-2-thioazolyl)-2,5-diphenyltetrazolium bromide (MTT) colorimetric assay. Briefly, cells were treated with increasing concentrations (10^−12, 10^−11, 10^−10, 10^−9, 10^−8, 10^−7, 10^−6, 10^−5, 10^−4 mol·L^−1) of either cisplatin (positive control) or test compounds (H2AcMe, H2BzMe, 1 and 2). The compounds were previously dissolved in dimethyl sulfoxide (DMSO) and the final concentrations were adjusted in DMEM in such manner that the final DMSO concentration was lower than 0.5%. Following 48 h treatment, MTT reagent was added to each well. Following another 4 h of incubation at 37 °C, DMSO was added to each well to dissolve formazan precipitate and absorbance was measured at 570 nm. Tests using DMSO (0.5% in DMEM) as negative control were carried out in parallel. All tests were performed in quadruplicates with full agreement between the results. Statistical analysis was carried out by the unpaired, one-tailed Student’s t testing using a p value of 0.05. A value of p < 0.05 was considered significant.

[3] = system: MRC5 (Human Fetal Lung Fibroblast) cells; assay: MTT cytotoxicity assay, MRC5 fibroblasts; type: cell-based
Description: as §1, §2, §3

[4] = system: U87 (p53 wild-type glioblastoma multiforme) cells; assay: MTT cytotoxicity assay, U87 cells; type: cell-based, human; details: for IC50: MTT, 48 h treatment
Description: as §1, §2, §3

[5] = system: MRC5 cells; assay: ROS generation, DCFH-DA assay, MRC5 cells; type: cell-based, human; details: 1 × 10^−5 mol/L, 24 h
Text: (§4) To examine the effects of H2AcMe, H2BzMe and their complexes 1 and 2 on the generation of free radicals (reactive oxygen species, ROS), we used the 2',7'-dichlorodihydrofluorescein diacetate (DCFH-DA) assay.
(§5) ROS accumulation was detected using dichlorodihydrofluorescein diacetate (DCFH-DA, Sigma). DCFH-DA is a non-fluorescent compound, that when it is taken up by passive diffusion into the cells, is hydrolyzed by esterases to yield non-permeable DCFH. In the presence of ROS, DCFH is oxidized to the fluorescent DCF. Tumor cells were treated with the compounds for 24 h and were then incubated with DCFH-DA (1 × 10^−5 mol·L^−1) for 30 min at 37 °C. Following incubation, the cells were washed twice with PBS. Thereafter, the cells were observed under the fluorescent microscope Zeiss Axionplan coupled with a digital camera at excitation and emission wavelengths of 488 and 525 nm, respectively. Data were analyzed using ImageJ (ImageJ, National Institute of Health, Bethesda, MD, USA) and expressed as percentages of DCFDA fluorescence of the corresponding control.

[6] = system: U87 cells; assay: ROS generation, DCFH-DA assay, U87 cells; type: cell-based, human; details: 1 × 10^−5 mol/L, 24 h
Text: as §4, §5

[7] = Homo sapiens, MRC5, 48 h treatment

Structure (SMILES)	alteration in the electrophoretic mobility of pUC 19 plasmid DNA [1]	IC50 [2] [µM]	selectivity index (SI = IC50MRC5/IC50tumor cell), T98 [2]	IC50 ([3]; 48 h treatment) [µM]	IC50 [4] [µM]	selectivity index (SI = IC50MRC5/IC50tumor cell), U87 ([4]; U87 vs MRC5)	ROS levels in MRC5 cells compared with glioma cells [5]	IC50 ([2]; Homo sapiens, T98, 48 h) [µM]	IC50 [3, 7] [µM]	ROS levels in U87 cells compared with T98 cells [6]	IC50 ([4]; Homo sapiens, U-87 MG) [µM]
N.N.[Cl][Pt][Cl] [Cisplatin, [cis(Diaminedichloro)platinum(II)], reference compound]	strong modification	5.31 ± 1.94	0.95	5.05 ± 0.71	1.76 ± 0.22	2.87					
[Cl][Cu][Cl] [CuCl2, reference compound]	no alteration in the electrophoretic mobility	> 100		> 100	> 100						
CC(=O)NN=C(C)c1ccccn1 [H2AcMe, 2-Acetylpyridine acetylhydrazone]							lower levels of ROS in MRC5 cells	13.8 ± 4.89	19.8 ± 4.15	higher levels of ROS in U87 cells	67.6 ± 4.08
CC(=O)NN=C(c1ccccc1)c1ccccn1 [H2BzMe, 2-benzoylpyridine acetylhydrazone]		19.7 ± 1.06	good selectivity index				the same increasing in ROS levels in MRC5 and in both malignant cells	19.8	62.3 ± 7.76	equally effective in both cell lineages	52.3 ± 10

— publication PMC6270821, “ROS-Mediated Cytotoxic Effect of Copper(II) Hydrazone Complexes against Human Glioma Cells” (Molecules, 2014)
